Data on 34 compounds can be found in ChEMBL document CHEMBL4483862, “Open-source discovery of chemical leads for next-generation chemoprotective antimalarials” (2018).

What is called pIC50 is −log10 of the IC50, conventionally taken in molar units. Broadly, the IC90 is the concentration at which the effect reaches the 90% level.

This test deals with Plasmodium berghei. Description: Luciferase/luciferin-expressing antifolate-resistant parasites were used to infect a culture of HepG2 cells that were pre-incubated with compounds. Infected hepatocytes emit light due to the luciferase reaction. Assay results are presented as the percent inhibition of light emission compared to control. […]. Type of test: functional. To be noted: sporozoite; for IC90: read-out: LUCIFERASE INFECTION ASSAY - IC90.

The mark [1] stands for this setting: read-out: LUCIFERASE INFECTION ASSAY - IC50.

pIC50: −log10 of the molar value.

Take `O=S(=O)(Nc1cc(C(F)(F)F)cc(C(F)(F)F)c1)c1ccccc1Oc1ccc(Cl)cc1Cl`: the concentration for an effect of 90% (IC90) is over 6.22 µM. The negative-log IC50 (pIC50) (FFLUC_HILL_SLOPE 40.5, FFLUC_R_SQUARED 0.634, read-out: LUCIFERASE INFECTION ASSAY - IC50) is under 5.21.
Turning to `CC(=O)c1cc2c(cc1NC(=O)c1cccc(S(=O)(=O)N3c4ccccc4CC3C)c1)OCO2` (stereo not drawn), the IC90 is over 10 µM. Moreover, the pIC50 under setting [1] is under 5.00.
On the same counts, the results for `CCCCn1c(C(C)Oc2ccc(Cl)cc2Cl)nc2cc(S(N)(=O)=O)ccc21` (stereo not drawn) are 0.529 µM and 6.63.
With `Clc1ccc(-c2nc3ncc(Br)cc3[nH]2)cc1`, the concentration for an effect of 90% (IC90) amounted to 3.76 µM. Besides, the negative-log IC50 (pIC50) (FFLUC_HILL_SLOPE 1.95, FFLUC_R_SQUARED 0.684, PBLUC_HILL_SLOPE 3.28, PBLUC_R_SQUARED 0.422, read-out: LUCIFERASE INFECTION ASSAY - IC50) is 5.72.
As for `CC(=O)n1c(Nc2ccc(F)cc2)c(Sc2ccccc2[N+](=O)[O-])c2ccccc2c1=O`, the IC90 was over 10 µM. Under setting [1], the pIC50 is 5.23.
On the same counts, the results for `Cc1cc(C(=O)COC(=O)C2=COCCO2)c(C)n1Cc1ccco1` are over 10 µM and under 5.00.
With `FC1(F)Oc2ccc(Nc3cc(-c4cc(Cl)cc(Cl)c4)ncn3)cc2OC1(F)F`, the IC90 was over 7.4 µM. In addition, the negative logarithm of the IC50 (pIC50) (HEPG2TOX_HILL_SLOPE 15.2, HEPG2TOX_R_SQUARED 0.834, PBLUC_HILL_SLOPE 14.8, PBLUC_R_SQUARED 0.0861, read-out: LUCIFERASE INFECTION ASSAY - IC50) was 5.16.
Turning to `COCC(C)n1c(C)cc(C(=O)CSc2ccc(NC(C)=O)cc2)c1C` (stereo not drawn), the 90% effect concentration (IC90) was over 10 µM. In addition, the negative-log IC50 (pIC50) (PBLUC_HILL_SLOPE 0.698, PBLUC_R_SQUARED 0.74, read-out: LUCIFERASE INFECTION ASSAY - IC50) is 6.02.
For `COc1cccc(-c2nccc3n[nH]c(-c4cccc(OC(F)(F)F)c4)c23)c1`, the 90% effect concentration (IC90) is over 10 µM. In addition, the pIC50 (FFLUC_HILL_SLOPE 1.32, FFLUC_R_SQUARED 0.557, read-out: LUCIFERASE INFECTION ASSAY - IC50) is under 5.00.
Regarding `O=C(Nc1cc(C(F)(F)F)cc(C(F)(F)F)c1)c1cc2ccccc2s1`, the concentration for an effect of 90% (IC90) is over 8.48 µM. Also, the negative logarithm of the IC50 (pIC50) (PBLUC_HILL_SLOPE 0.25, PBLUC_R_SQUARED 0.0524, read-out: LUCIFERASE INFECTION ASSAY - IC50) was under 5.07.
On to `O=C(O/N=C(\Nc1ccc(OC(F)(F)F)cc1)c1c(Cl)cccc1Cl)c1ccccc1C(F)(F)F`, for which the IC90 is over 6.14 µM. Also, where the note is “PBLUC_HILL_SLOPE 1.69, PBLUC_R_SQUARED 0.564, read-out: LUCIFERASE INFECTION ASSAY - IC50”, the pIC50 is under 5.21.
Regarding `Cc1ccc(N2C(=N)C(c3nc4ccccc4s3)C(c3ccccc3)C2=O)cc1` (stereo not drawn), the 90% effect concentration (IC90) was over 10 µM. Also, under “FFLUC_HILL_SLOPE 38.3, FFLUC_R_SQUARED 0.217, HEPG2TOX_HILL_SLOPE 0.75, HEPG2TOX_R_SQUARED 0.479, read-out: LUCIFERASE INFECTION ASSAY - IC50”, the pIC50 was under 5.00.
On to `Brc1cnc(N2CCN(C(c3ccccc3)(c3ccccc3)c3ccccc3)CC2)nc1`, for which the IC90 is over 6.8 µM. Besides, the negative logarithm of the IC50 (pIC50) (FFLUC_HILL_SLOPE 9.83, FFLUC_R_SQUARED 0.0243, read-out: LUCIFERASE INFECTION ASSAY - IC50) is under 5.17.
For `Cc1ccc(C(C)C)c(OCC(=O)N2CCC(c3nc4ccccc4[nH]3)CC2)c1`, the concentration for an effect of 90% (IC90) is 7.21 µM. The pIC50 (PBLUC_HILL_SLOPE 4.62, PBLUC_R_SQUARED 0.766, read-out: LUCIFERASE INFECTION ASSAY - IC50) was 5.35.
Turning to `Nc1nccnc1C(=O)Nc1ncc(Cc2cc(Cl)cc(Cl)c2)s1`, the IC90 was found to be 7.09 µM. In addition, the negative-log IC50 (pIC50) (PBLUC_HILL_SLOPE 2.47, PBLUC_R_SQUARED 0.427, read-out: LUCIFERASE INFECTION ASSAY - IC50) was 5.54.
With `Cc1c(C(=O)Nc2ccc(Oc3ccccc3)cc2)cnn1C`, the IC90 is over 10 µM. For the same compound, the negative logarithm of the IC50 (pIC50) (HEPG2TOX_HILL_SLOPE 1.34, HEPG2TOX_R_SQUARED 0.933, PBLUC_HILL_SLOPE 3.41, PBLUC_R_SQUARED 0.294, read-out: LUCIFERASE INFECTION ASSAY - IC50) is 5.15.
For `O=[N+]([O-])c1cc2c(c(Cn3c(COc4ccc(Cl)cc4Cl)nc4ccccc43)c1)OCOC2`, the concentration for an effect of 90% (IC90) came out at 7.34 µM. Besides, the pIC50 (FFLUC_HILL_SLOPE 4.75, FFLUC_R_SQUARED 0.0792, PBLUC_HILL_SLOPE 3.98, PBLUC_R_SQUARED 0.767, read-out: LUCIFERASE INFECTION ASSAY - IC50) was 5.37.
In the case of `O=C(CNc1cccc(C(F)(F)F)c1)N/N=C/c1c2ccccc2c(Cl)c2ccccc12`, the concentration for an effect of 90% (IC90) was over 10 µM. Moreover, the negative logarithm of the IC50 (pIC50) (HEPG2TOX_HILL_SLOPE 7.3, HEPG2TOX_R_SQUARED 0.234, PBLUC_HILL_SLOPE 3.59, PBLUC_R_SQUARED 0.507, read-out: LUCIFERASE INFECTION ASSAY - IC50) was 5.21.
Regarding `COc1ccc(-c2cnc3cnc(-c4ccc(CO)cc4)cn23)cc1`, the concentration for an effect of 90% (IC90) was determined as 9.11 µM. Also, the pIC50 (PBLUC_HILL_SLOPE 11.2, PBLUC_R_SQUARED 0.457, read-out: LUCIFERASE INFECTION ASSAY - IC50) was 5.13.
Regarding `CN(C)CCNc1cc(-c2ccco2)nc2ccccc12`, the IC90 worked out at 9.18 µM. For the same compound, the negative logarithm of the IC50 (pIC50) (HEPG2TOX_HILL_SLOPE 2.93, HEPG2TOX_R_SQUARED 0.885, PBLUC_HILL_SLOPE 3.51, PBLUC_R_SQUARED 0.62, read-out: LUCIFERASE INFECTION ASSAY - IC50) is 5.31.
Consider `COc1ccc(NC(=O)c2cccc(Cl)c2)cc1OCc1cccnc1`, for which the IC90 was over 10 µM. Also, the pIC50 under setting [1] is under 5.00.
For `Cc1ccc(N2C(=O)c3ccccc3C(C=NNC(=O)c3ccc(CSc4ccc(Cl)cc4)cc3)C2=O)cc1C` (stereo not drawn), the 90% effect concentration (IC90) is over 10 µM. For the same compound, the pIC50 (FFLUC_HILL_SLOPE 1.61, FFLUC_R_SQUARED 0.665, HEPG2TOX_HILL_SLOPE 1.11, HEPG2TOX_R_SQUARED 0.878, read-out: LUCIFERASE INFECTION ASSAY - IC50) is under 5.00.
For `Cc1ccc(-c2nn(-c3ncc(Cl)cc3Cl)c(=O)c3ccccc23)cc1`, the concentration for an effect of 90% (IC90) was over 10 µM. Also, the negative logarithm of the IC50 (pIC50) (HEPG2TOX_HILL_SLOPE 2.58, HEPG2TOX_R_SQUARED 0.712, read-out: LUCIFERASE INFECTION ASSAY - IC50) was under 5.00.
In the case of `CN1c2ccccc2C(C)(C)C12C=Cc1c(ccc3oc4c(c13)CCCC4)O2` (stereo not drawn), the 90% effect concentration (IC90) was over 10 µM. Besides, the negative logarithm of the IC50 (pIC50) (PBLUC_HILL_SLOPE 2.26, PBLUC_R_SQUARED 0.401, read-out: LUCIFERASE INFECTION ASSAY - IC50) is 5.08.
For the compound `O=C(Nc1nonc1-c1cccs1)c1sc2cc(Cl)ccc2c1Cl`, the concentration for an effect of 90% (IC90) came to 2.76 µM. For the same compound, the pIC50 (FFLUC_HILL_SLOPE 17.9, FFLUC_R_SQUARED 0.511, HEPG2TOX_HILL_SLOPE 2.63, HEPG2TOX_R_SQUARED 0.88, PBLUC_HILL_SLOPE 16.1, PBLUC_R_SQUARED 0.687, read-out: LUCIFERASE INFECTION ASSAY - IC50) is 5.62.
Turning to `COc1cc(-c2cnc3ccc(Cc4ccccc4)nn23)cc(OC)c1OC`, the IC90 was over 10 µM. Further, the pIC50 (HEPG2TOX_HILL_SLOPE 1.4, HEPG2TOX_R_SQUARED 0.659, PBLUC_HILL_SLOPE 16.5, PBLUC_R_SQUARED 0.342, read-out: LUCIFERASE INFECTION ASSAY - IC50) was 5.03.
For `Cc1nn(-c2ccccc2)c2c1C1(C(=O)Nc3ccccc31)N1N=NN(c3ccccc3)C1=N2` (stereo not drawn), the IC90 is over 10 µM. For the same compound, the pIC50 (PBLUC_HILL_SLOPE 0.947, PBLUC_R_SQUARED 0.0755, read-out: LUCIFERASE INFECTION ASSAY - IC50) is under 5.00.
On to `COc1ccc(CN2C(=O)c3ccccc3C(C=NNC(=O)Cc3cccn3C)C2=O)cc1` (stereo not drawn), for which the concentration for an effect of 90% (IC90) is 4.28 µM. Moreover, for the setting “FFLUC_HILL_SLOPE 212, FFLUC_R_SQUARED 0.138, HEPG2TOX_HILL_SLOPE 1.34, HEPG2TOX_R_SQUARED 0.84, PBLUC_HILL_SLOPE 13.5, PBLUC_R_SQUARED 0.236, read-out: LUCIFERASE INFECTION ASSAY - IC50”, the pIC50 is 5.44.
Regarding `COc1cccc(CN2CCN3C=C(C(=O)Nc4ccc(C(C)C)cc4)OC3=NC2=O)c1`, the IC90 was determined as 9.3 µM. Also, the negative-log IC50 (pIC50) (HEPG2TOX_HILL_SLOPE 3.72, HEPG2TOX_R_SQUARED 0.984, PBLUC_HILL_SLOPE 3.98, PBLUC_R_SQUARED 0.662, read-out: LUCIFERASE INFECTION ASSAY - IC50) is 5.27.
In the case of `CCC(C)NCCCCOc1cc(C(C)C)ccc1C` (stereo not drawn), the IC90 was over 10 µM. For the same compound, the negative-log IC50 (pIC50) (PBLUC_HILL_SLOPE 11.7, PBLUC_R_SQUARED 0.0741, read-out: LUCIFERASE INFECTION ASSAY - IC50) is under 5.00.
On to `COc1ccc(Nc2nccc3[nH]c(-c4cccc(F)c4)cc23)cc1O`, for which the IC90 was over 10 µM. The pIC50 (PBLUC_HILL_SLOPE 4.51, PBLUC_R_SQUARED 0.135, read-out: LUCIFERASE INFECTION ASSAY - IC50) was 5.03.
As to `CN1C(=O)NC(c2ccccc2C(F)(F)F)C(C(=O)c2cccs2)C1(O)C(F)(F)F` (stereo not drawn), the IC90 was over 10 µM. In addition, the pIC50 under setting [1] was under 5.00.
Consider `Cn1cc(-c2cnc3cnc(-c4ccccc4)cn23)cn1`, for which the IC90 turned out to be 5.95 µM. Also, the negative logarithm of the IC50 (pIC50) (PBLUC_HILL_SLOPE 2.38, PBLUC_R_SQUARED 0.622, read-out: LUCIFERASE INFECTION ASSAY - IC50) was 5.63.
Regarding `O=C(Nc1ccc(Cl)cc1)n1ccc(/C=C/c2ncc(C(F)(F)F)cc2Cl)n1`, the concentration for an effect of 90% (IC90) is over 7.72 µM. Moreover, the pIC50 (HEPG2TOX_HILL_SLOPE 28.5, HEPG2TOX_R_SQUARED 0.883, PBLUC_HILL_SLOPE 15.5, PBLUC_R_SQUARED 0.352, read-out: LUCIFERASE INFECTION ASSAY - IC50) is 5.14.
